Reference: ChEMBL document CHEMBL4680321, “Novel indolylarylsulfone derivatives as covalent HIV-1 reverse transcriptase inhibitors specifically targeting the drug-resistant mutant Y181C” (Bioorg Med Chem, 2021)
Activity calls are given as the source filed them. The rule behind the calls is not given here.

Tests used:
[1] = test system: Human immunodeficiency virus 1; experiment: Antiviral activity against HIV-3B infected in human MT-4 cells assessed as reduction in virus-induced cytopathic effect incubated for 5 days by MTT assay; type: functional, organism-based; conditions: Human immunodeficiency virus 1, 3B, MT4, 120 h
[2] = Cytotoxicity against human MT4 cells assessed as reduction in cell viability incubated for 5 days by MTT assay; type: cell-based; conditions: time 5 day
[3] = test system: Human immunodeficiency virus 2; experiment: Antiviral activity against HIV2 ROD infected in human MT-4 cells assessed as reduction in virus-induced cytopathic effect incubated for 5 days by MTT assay; type: functional, organism-based; conditions: MT4, time 5.0 day
[4] = target: Human immunodeficiency virus type 1 reverse transcriptase (Human immunodeficiency virus 1, UniProt Q72547); experiment: Inhibition of recombinant HIV-1 BH10 reverse transcriptase using D38/[32P]25PGA as template-primer incubated for 5 mins in presence of DTT followed by dTTP addition and measured after 15 to 30 sec by nucleotide incorporation assay; design: species or system Human immunodeficiency virus type 1 BH10
[5] = test system: Human immunodeficiency virus 1; experiment: Antiviral activity against HIV-3B harboring reverse transcriptase Y181C mutant infected in human MT-4 cells assessed as reduction in virus-induced cytopathic effect incubated for 5 days by MTT assay; type: functional, organism-based; conditions: Human immunodeficiency virus 1, 3B, MT4, 120 h
[6] = Selectivity index, ratio of EC50 for HIV-3B infected in human MT-4 cells to EC50 for HIV-3B harboring reverse transcriptase Y181C mutant infected in human MT-4 cells; type: functional, Human immunodeficiency virus 1
[7] = Stability of compound in PBS buffer at pH 2 at 2.5 mM incubated for 24 hrs by reverse phase HPLC analysis; type: physicochemical; conditions: pH 2, 24 h, 2500 µM
[8] = Stability of compound in PBS buffer at pH 7.4 at 2.5 mM incubated for 24 hrs by reverse phase HPLC analysis; type: physicochemical; conditions: pH 7.4, 24 h, 2500 µM

| Compound | EC50 [1] [µM] | CC50 at 120 h [2] [µM] | Activity [3] | IC50 [4] [µM] | EC50 [5] [µM] | Ratio EC50 [6] | Stabilty [7] | Stabilty [8] |
| --- | --- | --- | --- | --- | --- | --- | --- | --- |
| Cc1cc(/C=C/C#N)cc(C)c1Nc1ccnc(Nc2ccc(C#N)cc2)n1 [RILPIVIRINE] | 0.01 |  |  |  |  |  |  |  |
| C=CC(=O)N1CC[C@H](NS(=O)(=O)c2c(C(N)=O)[nH]c3ccc(Br)cc23)C1 | > 155 | 155 | inactive |  |  |  |  |  |
| C=CS(=O)(=O)NC1CCN(S(=O)(=O)c2c(C(N)=O)[nH]c3ccc(Br)cc23)CC1 | > 6.5 | 6.5 | inactive |  |  |  |  |  |
| C=CC(=O)N1CC[C@@H](NS(=O)(=O)c2c(C(N)=O)[nH]c3ccc(Br)cc23)C1 | > 51.8 | 51.8 | inactive |  |  |  |  |  |
| C=CS(=O)(=O)N1CCC[C@@H](NS(=O)(=O)c2c(C(N)=O)[nH]c3ccc(Br)cc23)C1 | > 29 | 29 | inactive | > 100 | 40.7 | 7.7 |  |  |
| C=CC(=O)NC1CCN(S(=O)(=O)c2c(C(N)=O)[nH]c3ccc(Br)cc23)CC1 | 125 | > 274 | inactive |  |  |  |  |  |
| NC(=O)c1[nH]c2ccc(Br)cc2c1S(=O)(=O)N1CCCC1 | 3.6 | 35.3 | inactive | 0.48 |  |  |  |  |
| C=CC(=O)N[C@@H]1CCN(S(=O)(=O)c2c(C(N)=O)[nH]c3ccc(Br)cc23)C1 | > 178 | 178 | inactive |  |  |  |  |  |
| C=CS(=O)(=O)N1CC[C@H](NS(=O)(=O)c2c(C(N)=O)[nH]c3ccc(Br)cc23)C1 | 9.74 | 16 | inactive | > 100 | 22 | 9.3 | Stable | Stable |
| Cc1cc(C#N)cc(C)c1Oc1nc(Nc2ccc(C#N)cc2)nc(N)c1Br [ETRAVIRINE] | 0.01 |  |  |  |  |  |  |  |
| C=CC(=O)N1CCC[C@@H](NS(=O)(=O)c2c(C(N)=O)[nH]c3ccc(Br)cc23)C1 | > 43.6 | 43.6 | inactive |  |  |  |  |  |
| O=C1Nc2ccc(Cl)cc2[C@@](C#CC2CC2)(C(F)(F)F)O1 [EFAVIRENZ] |  | > 6.3 | inactive |  |  |  |  |  |
| C=CS(=O)(=O)N[C@@H]1CCN(S(=O)(=O)c2c(C(N)=O)[nH]c3ccc(Br)cc23)C1 | > 2.1 | 2.1 | inactive |  |  |  |  |  |
